≈ marks a conversion by molar mass, not a printed value.
Experiments:
Enterococcus faecium = assay: MIC, broth microdilution method (NCCLS M7-A5); format: cell-based; settings: 568 Enterococcus faecium cl.isol.

| SMILES | MIC (Staph. haemolyticus) | MIC (Enterococcus faecium) [µg/mL] |
| --- | --- | --- |
| C=C1NC(=O)C(Cc2c[nH]c3ccc(Cl)cc23)NC(=O)C(NC(=O)C(=CC)NC(=O)C(N)C(C)C)CSCC(C(=O)NC2C(=O)N3CCCC3C(=O)NCC(=O)NC(C(=O)NC(C(=O)NC3CSCC4NC(=O)C(CC(N)=O)NC(=O)C(CSCC5NC(=O)C(Cc6ccccc6)NC(=O)C(CS/C=C\NC5=O)NC4=O)NC(=O)CNC(=O)CNC(=O)CNC(=O)C4C(O)C(O)CN4C3=O)C(C)O)CSC2C)NC(=O)C(CC(C)C)NC1=O (stereo not drawn) [Factor A1] | 0,25 µg/ml |  |
| C=C1NC(=O)C(Cc2c[nH]c3ccc(Cl)cc23)NC(=O)C(NC(=O)C(=CC)NC(=O)C(N)C(C)C)CSCC(C(=O)NC2C(=O)N3CCCC3C(=O)NCC(=O)NC(C(=O)NC(C(=O)NC3CSCC4NC(=O)C(CC(N)=O)NC(=O)C(CSCC5NC(=O)C(Cc6ccccc6)NC(=O)C(CS/C=C\NC5=O)NC4=O)NC(=O)CNC(=O)CNC(=O)CNC(=O)C4CC(O)CN4C3=O)C(C)O)CSC2C)NC(=O)C(CC(C)C)NC1=O (stereo not drawn) [Factor A2] | 0,25 µg/ml | 2 (≈ 0.896 µM) |

Reference: patent EP1855705B1, “ANTIBIOTIC 107891, ITS FACTORS, PHARMACEUTICALLY ACCEPTABLE SALTS AND COMPOSITIONS, AND USE THEREOF” (Sentinella Pharmaceuticals, Inc. ("Sentinella"), priority 2005, dated 2006)
